The results in this text go back to US9458104B2 (priority 2012, dated 2016).

The target of experiment [1] is T1, RORγ ligand binding domain (LBD) (Homo sapiens, UniProt P51449).
T1 construct: made in house; host or cells: E. coli BL-21 (BL3), vector pDEST15
T1 sequence (P51449 269-508 limits assumed): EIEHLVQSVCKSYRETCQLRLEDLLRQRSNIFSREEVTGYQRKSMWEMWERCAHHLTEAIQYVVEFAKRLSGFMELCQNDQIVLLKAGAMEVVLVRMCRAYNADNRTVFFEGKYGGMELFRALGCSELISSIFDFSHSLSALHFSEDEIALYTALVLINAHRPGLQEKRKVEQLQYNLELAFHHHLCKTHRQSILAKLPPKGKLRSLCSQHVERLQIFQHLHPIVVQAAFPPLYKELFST
The experiment is described as follows: TR-FRET Activity Assay (ligand sensing assay, RORγ-LBD / coactivator peptide interaction). It counts as biochemical. In outline:
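GST-RORγ LBD expressed in bacteria, 20–60 ng/well, with biotinylated coactivator peptide 200–600 nM, streptavidin-APC and Eu-anti-GST. Buffer: 20 mM Tris-HCl pH 6.8, 60 mM KCl, 1 mM DTT, 5 mM MgCl2, BSA; 1% DMSO. LANCE TR-FRET 665/615 nm ratio; IC50 from four-parameter logistic fit.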

For a further experiment, the target named is T2, RORγ (UniProt P51449).
T2 construct: hRORg-LBD|aa259-518|NP_005051.2; hRORgt|aa1-497|NP_001001523 (RORg, t isoform, 497aa); mRORg-LBD|aa264-516|NP_035411
T2 sequence (P51449 1-518): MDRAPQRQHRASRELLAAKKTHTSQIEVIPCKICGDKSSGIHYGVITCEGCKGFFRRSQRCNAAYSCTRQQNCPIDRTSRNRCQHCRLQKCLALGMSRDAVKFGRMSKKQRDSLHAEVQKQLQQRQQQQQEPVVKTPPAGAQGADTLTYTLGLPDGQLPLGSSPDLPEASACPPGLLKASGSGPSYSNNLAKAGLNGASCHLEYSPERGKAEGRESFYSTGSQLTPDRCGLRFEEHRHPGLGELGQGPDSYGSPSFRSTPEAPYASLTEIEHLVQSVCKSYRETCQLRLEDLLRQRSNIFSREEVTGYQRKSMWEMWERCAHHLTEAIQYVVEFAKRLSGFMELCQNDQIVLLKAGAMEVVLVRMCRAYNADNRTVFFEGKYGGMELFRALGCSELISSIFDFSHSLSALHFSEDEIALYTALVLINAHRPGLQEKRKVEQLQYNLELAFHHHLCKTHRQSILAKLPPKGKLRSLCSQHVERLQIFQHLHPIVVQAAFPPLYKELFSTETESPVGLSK
It counts as cell-based. To be noted: 293T cells, 16 h; for pIC50 (FF): firefly (FF) luciferase; for pIC50 (REN): renilla normalised (RENnorm) luciferase.

In general, IC50 refers to the midpoint of a concentration-inhibition curve. Read a high IC50 as weaker potency. With `Cc1c(C(=O)NCCC(C)(C)C(=O)O)cn(-c2ccc(S(=O)(=O)NC(C)(C)C)c(C(F)(F)F)c2)c1CC1CCCCC1` [Example 4, 4-(1-(4-(N-(tert-Butyl)sulfamoyl)-3-(trifluoromethyl)phenyl)-5-(cyclohexylmethyl)-4-methyl-1H-pyrrole-3-carboxamido)-2,2-dimethylbutanoic acid], the IC50 in experiment [1] is 501 nM. In addition, on RORγ, the “pIC50 (FF)” value worked out at 7.7 and the “pIC50 (REN)” value is reported as 7.7.
As for `Cn1c(C(=O)NC23CCC(C(=O)O)(CC2)CC3)cc(-c2ccc(S(=O)(=O)NC(C)(C)C)c3ccccc23)c1CC1CCCCC1` [8/8], in experiment [1], the IC50 was 2000 nM. Further, on RORγ, the “pIC50 (FF)” value came to 8.4 and the “pIC50 (REN)” value stood at 8.4.
With `CC(C)(C)c1cc(-n2nc(C(N)=O)c(Cl)c2CC2CCCCC2)cc(C(C)(C)C)c1` [Example 313, 4-Chloro-5-(cyclohexylmethyl)-1-(3,5-di-tert-butylphenyl)-1H-pyrazole-3-carboxamide], the IC50 in experiment [1] was 100 nM. At RORγ, the “pIC50 (FF)” value worked out at 6.3 and the “pIC50 (REN)” value is 6.4.
The corresponding values for `Cn1c(C(=O)NCC2(O)CCS(=O)(=O)CC2)cc(-c2ccc(S(=O)(=O)NC(C)(C)C)c3ccccc23)c1CC1CCCCC1` [8/5] are 1000 nM, 7.6 and 7.6.
For `Cn1c(C(=O)NC23CCC(C(=O)O)(CC2)CC3)cc(-c2cc(C(C)(C)C)cc(C3(C)CC3)c2)c1CC1CCCCC1` [8/14], the IC50 in experiment [1] is 2000 nM. Also, at RORγ, the “pIC50 (FF)” value was 7.4 and the “pIC50 (REN)” value was 7.6.
As to `CC(C)(C)c1cc(-c2cc(C(=O)NC3CCOCC3)nn2CC2CCCCC2)cc(C2(C)CC2)c1` [100/1], the IC50 in experiment [1] was 79.4 nM. Further, on RORγ, the “pIC50 (FF)” value turned out to be 7.3 and the “pIC50 (REN)” value was 7.4.
The corresponding values for `Cc1c(C(N)=O)cn(-c2cc(C(C)(C)C)cc(C(C)(C)C)c2)c1CC1CCCCC1` [Example 305, 5-(Cyclohexylmethyl)-1-(3,5-di-tert-butylphenyl)-4-methyl-1H-pyrrole-3-carboxamide] are 200 nM, 6.3 and 6.3.
For `Cc1c(C(=O)CC2CC2)cc(-c2cc(C(C)(C)C)cc(C(C)(C)C)c2)n1CC1CCCCC1` [Example 324, 1-(1-(Cyclohexylmethyl)-5-(3,5-di-tert-butylphenyl)-2-methyl-1H-pyrrol-3-yl)-2-cyclopropylethanone] the same measures were 631 nM, less than 4.7 and less than 4.7.
For `Cc1c(C(=O)NC2CCOCC2)cc(-c2ccc(S(=O)(=O)NC(C)(C)C)c(C(F)(F)F)c2)n1C1CCCCC1` [302/6] the same measures were 1000 nM, 6.5 and 6.7.
In the case of `Cn1c(C(=O)N[C@H]2C[C@H](C(=O)O)C2)cc(-c2cc(C(C)(C)C)nc(C(C)(C)C)n2)c1CC1CCCCC1` [8/19], the IC50 in experiment [1] was 794 nM. Moreover, on RORγ, the “pIC50 (FF)” value amounted to 6.8 and the “pIC50 (REN)” value was determined as 6.8.
As for `Cn1c(C(=O)NCC(C)(C)C(=O)O)cc(-c2cc(C(C)(C)C)cc(C3(C)CC3)c2)c1CC1CCCCC1` [8/13], the IC50 in experiment [1] was 2510 nM. Moreover, at RORγ, the “pIC50 (FF)” value came to 7.4 and the “pIC50 (REN)” value turned out to be 7.6.
The corresponding values for `CC(C)(C)NS(=O)(=O)c1ccc(-c2cc(C(=O)NC3CCOCC3)nn2CC2CCCCC2)cc1C(C)(C)C` [100/2] are 794 nM, 7.3 and 7.4.
In turn, `CC(C)(C)c1cc(-c2cc(C(=O)N[C@H]3C[C@H](C(=O)O)C3)nn2CC2CCCCC2)cc(C2(C)CC2)c1` [Example 100, (trans)-3-(5-(3-(tert-Butyl)-5-(1-methylcyclopropyl)phenyl)-1-(cyclohexylmethyl)-1H-pyrazole-3-carboxamido)cyclobutanecarboxylic acid] had an IC50 in experiment [1] of 501 nM. In addition, on RORγ, the “pIC50 (FF)” value is 6.9 and the “pIC50 (REN)” value was determined as 7.0.
`Cn1c(C(=O)N[C@H]2C[C@H](C(=O)O)C2)cc(-c2ccc(S(=O)(=O)NC(C)(C)C)c3ccccc23)c1CC1CCCCC1` [8/4] gave an IC50 in experiment [1] of 1000 nM. For the same compound, the “pIC50 (FF)” value against RORγ was determined as 7.7.
The compound `Cn1c(C(=O)NCCC(C)(C)C(=O)O)cc(-c2cc(C(C)(C)C)cc(C3(C)CC3)c2)c1CC1CCCCC1` [8/10] showed an IC50 in experiment [1] of 794 nM. Further, at RORγ, the “pIC50 (FF)” value is reported as 7.4 and the “pIC50 (REN)” value turned out to be 7.5.
For `Cc1c(C(=O)N[C@H]2C[C@H](C(=O)O)C2)cn(-c2cc(C(C)(C)C)cc(C3(C)CC3)c2)c1CC1CCCCC1` [1/5] the same measures were 1000 nM, 7.6 and 8.0.
For `Cc1c(C(=O)NC2CCOCC2)cc(-c2ccc(S(=O)(=O)NC(C)(C)C)c(C(F)(F)F)c2)n1CC(C(F)(F)F)C(F)(F)F` [Example 319, 5-(4-(N-(tert-Butyl)sulfamoyl)-3-(trifluoromethyl)phenyl)-2-methyl-N-(tetrahydro-2H-pyran-4-yl)-1-(3,3,3-trifluoro-2-(trifluoromethyl)propyl)-1H-pyrrole-3-carboxamide] the same measures were 5010 nM, 6.0 and 5.8.
In experiment [1], `CC(=O)c1cc(-c2cc(C(C)(C)C)cc(C(C)(C)C)c2)n(CC2CCCCC2)c1C` [Example 321, 1-(1-(Cyclohexylmethyl)-5-(3,5-di-tert-butylphenyl)-2-methyl-1H-pyrrol-3-yl)ethanone] showed a half-maximal inhibitory concentration (IC50) of 794 nM. Further, on RORγ, the “pIC50 (FF)” value turned out to be 5.8 and the “pIC50 (REN)” value was found to be 6.0.
For `CC(C)(C)c1cc(-c2nc(C(N)=O)nn2CC2CCCCC2)cc(C(C)(C)C)c1` [308/1] the same measures were 2510 nM, 6.0 and 6.0.
For `CC(C)(C)c1cc(-n2nc(C(=O)NCc3ccno3)c(Cl)c2CC2CCCCC2)cc(C(C)(C)C)c1` [103/6] the same measures were 631 nM, 6.1 and 6.2.
For `Cc1c(C(=O)N[C@H]2C[C@H](C(=O)O)C2)cn(-c2cc(C(C)(C)C)cc(C3(C)CC3)c2)c1C(=O)c1ccccc1` [Example 301, (trans)-3-(5-Benzoyl-1-(3-(tert-butyl)-5-(1-methylcyclopropyl)phenyl)-4-methyl-1H-pyrrole-3-carboxamido)cyclobutanecarboxylic acid] the same measures were 501 nM, 6.7 and 6.8.
On to `Cc1c(C(=O)N[C@H]2C[C@H](C(=O)O)C2)cn(-c2ccc(S(=O)(=O)NC(C)(C)C)c(C(C)(C)C)c2)c1CC1CCCCC1` [Example 4/1], for which the IC50 in experiment [1] was 1260 nM. Moreover, on RORγ, the “pIC50 (FF)” value turned out to be 7.2 and the “pIC50 (REN)” value is given as 7.3.
For `CC(C)(O)CNC(=O)c1nn(-c2cc(C(C)(C)C)cc(C(C)(C)C)c2)c(CC2CCCCC2)c1Cl` [103/5] the same measures were 316 nM, 6.2 and 6.3.
For `CC(C)(C)c1cc(-n2nc(C(=O)NCc3cnco3)c(Cl)c2CC2CCCCC2)cc(C(C)(C)C)c1` [103/7] the same measures were 251 nM, 6.3 and 6.3.
